Results on one compound are retold here after patent US9675591B2, “Methods for treating seizure disorders and pain” (THE REGENTS OF THE UNIVERSITY OF CALIFORNIA, priority 2013, dated 2017).

The test concerns the target KCa2.2 (SK2) (Rattus norvegicus, UniProt P70604). The experiment in a line: Whole-cell patch-clamp, KCa2.2. The format is cell-based, human. As to conditions: 250 nM free intracellular Ca2+. As to the method: HEK-293 or COS-7 cells stably expressing hKCa2.1, rKCa2.2, and hKCa2.3 have been described previously (Sankaranarayanan et al., 2009). Cells were held at −80 mV and KCa currents elicited by dialysis with a K^+ aspartate based internal containing 250 nM free Ca^2+ (pH 7.2, 290 mOsm, pipette resistance 1.5 MΩ). To reduce currents from native chloride channels, Na^+ aspartate Ringer was used as an external solution. KCa2 currents were recorded with 200-ms voltage ramps from −120 to +40 mV applied every 10 s, and the fold increase of slope conductance at −80 mV by drug was taken as a measure of channel activation. Data analysis, fitting, and plotting were performed with IGOR-Pro (Wavemetrics, Lake Oswego, Oreg., USA) and Origin 9.0 (OriginLab, Northampton, Mass., USA).
(In general: Patch clamp records ionic current or voltage across a cell membrane.)

SMILES strings stand for the structures.

For the compound `Nc1nc2ccc(SC(F)(F)F)cc2s1` [SKA-19, 6-((trifluoromethyl)thio)benzo[d]thiazol-2-amine], where the note is “read-out: EC50 or IC50, KCa2.2”, the EC50 came out at 14 µM. Besides, the “maximal increase of KCa2 currents” value (stated for KCa2 currents) was determined as 30 fold.

One may read the EC50 as the concentration at which the effect is half-maximal.
